Reference: US12115167B2 (Woolsey Pharmaceuticals, Inc., priority 2022, dated 2024)
Where a name gives a salt, the structure may show the parent alone.

Assay: Stability of fasudil in 0.05M citrate buffer with and without EDTA, 60° C. for 36 days
Format: physicochemical
Settings: 60° C. 36 days, in words
Procedure: Samples were stored at 60° C. for 36 days.

**Q.** For `O=S(=O)(c1cccc2cnccc12)N1CCCNCC1` [fasudil, hexahydro-1-(5-isoquinolinesulfonyl)-1H-1,4-diazepine monohydrochloride hemihydrate], which “compatibility with EDTA” value is on record?
**A.** compatible with EDTA in citrate buffer
